US9770026B2, “Substituted pyrimidine compound and uses thereof” (Shenyang Sinochem Agrochemicals R&D Co., Ltd., priority 2012, dated 2017)

What was measured:
[1] = test system: Diamond back moth; test: insecticidal activity against diamond back moth, airbrush spray; type: in vivo
How it was run: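 Airbrush leaf-disc spray test: both faces of 2 cm cabbage discs received 0.5 ml of test solution at 0.7 kg/cm^2. Solutions were made in acetone:methanol (1:1) and brought to concentration with 0.1% Tween 80 in water. Ten second-instar larvae per disc, triplicates, were held at 25° C and 60˜70% R.H., with mortality recorded at 72 hrs.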

[2] = test system: armyworm; test: bioactivity test against armyworm, airbrush spray; type: in vivo
[3] = test system: Green peach aphids (Myzus Persicae Sulzer); test: bioactivity test against green peach aphid, airbrush foliar spray; type: in vivo
How it was run: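 Aphids (15-30 per cabbage leaf disc) on moist filter paper were airbrush-sprayed at 10 psi, 0.5 mL, with compound from acetone:methanol (1:1) diluted in water with 0.1% tween 80. Held at 25±1 C, 60±5% RH; survivors counted after 48 hrs to give death rates.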

[4] = test system: carmine spider mite; test: bioactivity test against carmine spider mite, airbrush spray; type: in vivo; conditions: for pest or weed control at 100 µg/mL / pest or weed control at 600 µg/mL / pest or weed control at 10 µg/mL: read-out: Insecticidal activity against carmine spider mite (% )
How it was run: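 Broadbean seedlings infested with adult mites were sprayed with compound (acetone/methanol stock diluted in 0.1% Tween 80 water) by airbrush at 0.7 kg/cm^2, 0.5 ml. Three replicates were run. Mortality was scored after 72 hrs.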

[5] = test system: corn rust; test: protectant activity in vivo against corn rust; conditions: for pest or weed control at 6.25 µg/mL: read-out: control effect against corn rust (%), 6.25 mg/L; for pest or weed control at 25 µg/mL: read-out: control effect against corn rust (%), 25 mg/L; for pest or weed control at 100 µg/mL: read-out: control effect against corn rust (%), 100 mg/L; for pest or weed control at 400 µg/mL: read-out: control effect against corn rust (%), 400 mg/L
[6] = test system: wheat powdery mildew; test: protectant activity in vivo against wheat powdery mildew; conditions: for pest or weed control at 6.25 µg/mL: read-out: control effect against wheat powdery mildew (%), 6.25 mg/L; for pest or weed control at 25 µg/mL: read-out: control effect against wheat powdery mildew (%), 25 mg/L; for pest or weed control at 100 µg/mL: read-out: control effect against wheat powdery mildew (%), 100 mg/L; for pest or weed control at 400 µg/mL: read-out: control effect against wheat powdery mildew (%), 400 mg/L; for protectant activity against wheat powdery mildew in vivo: 400 ppm
[7] = 72 h, 600 mg/L, read-out: Insecticidal activity against armyworm (%)
[8] = Myzus persicae, foliar, 48 h, 10 mg/L, contrastive test, read-out: Insecticidal activity against peach aphid (%)
[9] = Myzus persicae, foliar, 48 h, 100 mg/L, contrastive test, read-out: Insecticidal activity against peach aphid (%)
[10] = Myzus persicae, foliar, 48 h, 600 mg/L, contrastive test, read-out: Insecticidal activity against peach aphid (%)
[11] = Tetranychus cinnabarinus, 72 h, 100 mg/L, contrastive test
[12] = Tetranychus cinnabarinus, 72 h, 600 mg/L, contrastive test
[13] = Zea mays, 168 h, protectant activity
[14] = Triticum aestivum, 168 h, protectant activity
[15] = Tetranychus cinnabarinus, 72 h, 10 mg/L, contrastive test
[16] = 100 ppm, death rate after 48 hrs
[17] = 600 ppm, death rate after 48 hrs
[18] = 100 ppm, mortality after 72 hrs
[19] = 600 ppm, mortality after 72 hrs
[20] = 10 ppm, death rate after 48 hrs

Structure (SMILES)	pest or weed control at 10 µg/mL ([1]; 72 h, 10 mg/L)	pest or weed control at 100 µg/mL ([1]; 72 h, 100 mg/L)	pest or weed control at 600 µg/mL ([1]; 72 h, 600 mg/L)	pest or weed control at 600 µg/mL [2, 7]	pest or weed control at 10 µg/mL [3, 8]	pest or weed control at 100 µg/mL [3, 9]	pest or weed control at 600 µg/mL [3, 10]	pest or weed control at 100 µg/mL [4, 11]	pest or weed control at 600 µg/mL [4, 12]	pest or weed control at 6.25 µg/mL [5, 13]	control (test results against armyworm) ([2]; 600 ppm, mortality after 72 h)	control (test results against green peach aphid) [3, 16]	control (test results against green peach aphid) [3, 17]	control against carmine spider mite [4, 18]	protectant activity against corn rust in vivo ([5]; 400 ppm)	protectant activity against wheat powdery mildew in vivo [6]	control (test results against diamond back moth) [1, 19]	control (test results against green peach aphid) [3, 20]	control against carmine spider mite [4, 19]	protectant activity against corn rust in vivo ([5]; 100 ppm)	further results
FC(F)(F)c1ccc(Oc2ccc(CCNc3ncnc4ccccc34)cc2)nc1 [CK12, reference compound]	0%	35%	100%	86%	73%	100%	100%	41%	100%	75%	–	–	–	–	–	–	–	–	–	–	pest or weed control at 10 µg/mL ([2]; 72 h, 10 mg/L, read-out: Insecticidal activity against armyworm (%)): 0%; pest or weed control at 100 µg/mL ([2]; 72 h, 100 mg/L, read-out: Insecticidal activity against armyworm (%)): 20%; pest or weed control at 25 µg/mL [5, 13]: 85%; pest or weed control at 100 µg/mL [5, 13]: 100%; pest or weed control at 400 µg/mL [5, 13]: 100%; pest or weed control at 6.25 µg/mL [6, 14]: 0%; pest or weed control at 25 µg/mL [6, 14]: 0%; pest or weed control at 100 µg/mL [6, 14]: 30%; pest or weed control at 400 µg/mL [6, 14]: 80%
Cc1ncnc(NC(C)c2ccc(Oc3ccc(C(F)(F)F)cc3Cl)cc2)c1Cl (stereo not shown) [CK30, reference compound]	–	–	0%	57%	0%	50%	93%	100%	100%	0%	–	–	–	–	–	–	–	–	–	–	pest or weed control at 10 µg/mL [4, 15]: 28%; pest or weed control at 25 µg/mL [5, 13]: 0%; pest or weed control at 100 µg/mL [5, 13]: 0%; pest or weed control at 400 µg/mL [5, 13]: 0%; pest or weed control at 6.25 µg/mL [6, 14]: 0%; pest or weed control at 25 µg/mL [6, 14]: 20%; pest or weed control at 100 µg/mL [6, 14]: 80%; pest or weed control at 400 µg/mL [6, 14]: 100%
CCc1ncnc(NCc2ccc(Oc3nc(Cl)c(Cl)cc3Cl)cc2)c1Cl [CK36, reference compound]	0%	0%	20%	0%	0%	14%	90%	–	0%	0%	–	–	–	–	–	–	–	–	–	–	pest or weed control at 25 µg/mL [5, 13]: 40%; pest or weed control at 100 µg/mL [5, 13]: 60%; pest or weed control at 400 µg/mL [5, 13]: 100%; pest or weed control at 6.25 µg/mL [6, 14]: 0%; pest or weed control at 25 µg/mL [6, 14]: 60%; pest or weed control at 100 µg/mL [6, 14]: 80%; pest or weed control at 400 µg/mL [6, 14]: 100%
CC(Cl)c1ncnc(NCCc2ccc(Oc3ncc(C(F)(F)F)cc3Cl)cc2)c1Cl (stereo not shown) [CK44, reference compound]	–	–	–	–	–	–	–	–	–	–	–	–	–	–	–	–	–	–	–	–	Insecticidal activity against diamond back moth (%) ([1]; 10 mg/L): 10%; Insecticidal activity against diamond back moth (%) ([1]; 100 mg/L): 25%; Insecticidal activity against diamond back moth (%) ([1]; 600 mg/L): 80%; Insecticidal activity against armyworm (%) ([2]; 600 mg/L): 0%; Insecticidal activity against peach aphid (%) ([3]; 2.5 mg/L, contrastive test): 0%; Insecticidal activity against peach aphid (%) ([3]; 5 mg/L, contrastive test): 19%; Insecticidal activity against peach aphid (%) ([3]; 10 mg/L, contrastive test): 35%; Insecticidal activity against peach aphid (%) ([3]; 100 mg/L, contrastive test): 98%; Insecticidal activity against peach aphid (%) ([3]; 600 mg/L, contrastive test): 100%; Insecticidal activity against carmine spider mite (% ) ([4]; 600 mg/L, contrastive test): 0%; control effect against corn rust (%) ([5]; 400 mg/L, protectant activity): 85%; control effect against wheat powdery mildew (%) ([6]; 400 mg/L, protectant activity): 0%
Cc1ncnc(NCCc2ccc(Oc3ccc(C(F)(F)F)cn3)cc2)c1Cl [Compound I-6729]	–	–	–	–	–	–	–	100%	100%	–	100%	100%	100%	100%	100%	100%	–	–	–	–	pest or weed control at 600 ppm ([1]; 72 h, 600 ppm, mortality after 72 hrs, read-out: control (test results against diamond back moth)): 100%; pest or weed control at 10 ppm ([3]; Myzus persicae, foliar, 48 h, 10 ppm, death rate after 48 hrs): 100%; Insecticidal activity against carmine spider mite (% ) ([4]; 2.5 mg/L): 64%; Insecticidal activity against carmine spider mite (% ) ([4]; 5 mg/L): 78%; pest or weed control at 10 µg/mL [4, 15]: 87%; pest or weed control at 600 ppm ([4]; Tetranychus cinnabarinus, 72 h, 600 ppm, mortality after 72 hrs): 100%; protectant activity against corn rust in vivo ([5]; 25 ppm): 100%; pest or weed control at 100 ppm ([5]; Zea mays, 168 h, read-out: protectant activity against corn rust in vivo, 100 ppm): 100%; pest or weed control at 100 ppm ([6]; Triticum aestivum, 168 h, read-out: protectant activity against wheat powdery mildew in vivo, 100 ppm): 100%
Cc1ncnc(NCCc2ccc(Oc3ccc(C(F)(F)F)cn3)cc2)c1Cl [Compound I-6731]	–	–	–	–	100%	100%	100%	–	–	–	–	100%	100%	100%	100%	100%	100%	100%	100%	100%	pest or weed control at 600 ppm ([2]; 72 h, 600 ppm, mortality after 72 h): 100%; Insecticidal activity against peach aphid (%) ([3]; 1.25 mg/L, contrastive test): 60%; control (test results against green peach aphid) ([3]; 5 ppm, death rate after 48 hrs): 100%; pest or weed control at 2.5 µg/mL ([3]; Myzus persicae, foliar, 48 h, 2.5 mg/L, contrastive test, read-out: Insecticidal activity against peach aphid (%)): 93%; pest or weed control at 5 µg/mL ([3]; Myzus persicae, foliar, 48 h, 5 mg/L, contrastive test, read-out: Insecticidal activity against peach aphid (%)): 100%
Cc1ncnc(NCCc2ccc(Oc3ccc(C(F)(F)F)cn3)cc2)c1Cl [Compound I-6733]	–	–	–	–	–	–	–	–	–	–	100%	100%	100%	100%	100%	100%	100%	100%	100%	100%	Insecticidal activity against diamond back moth (%) ([1]; 10 mg/L): 40%; Insecticidal activity against diamond back moth (%) ([1]; 100 mg/L): 68%; Insecticidal activity against diamond back moth (%) ([1]; 600 mg/L): 100%
Cc1ncnc(NCCc2ccc(Oc3ccc(C(F)(F)F)cn3)cc2)c1Cl [Compound I-6734]	40%	52%	100%	–	–	–	–	–	–	–	100%	100%	100%	100%	100%	100%	100%	100%	100%	100%	Insecticidal activity against carmine spider mite (% ) ([4]; 2.5 mg/L): 51%; Insecticidal activity against carmine spider mite (% ) ([4]; 5 mg/L): 57%; Insecticidal activity against carmine spider mite (% ) ([4]; 10 mg/L, contrastive test): 82%; Insecticidal activity against carmine spider mite (% ) ([4]; 100 mg/L, contrastive test): 100%; Insecticidal activity against carmine spider mite (% ) ([4]; 600 mg/L, contrastive test): 100%
Cc1ncnc(NCCc2ccc(Oc3ccc(C(F)(F)F)cn3)cc2)c1Cl [Compound I-6735]	–	–	–	–	–	–	–	–	–	–	100%	100%	100%	100%	100%	100%	100%	100%	100%	100%	Insecticidal activity against peach aphid (%) ([3]; 1.25 mg/L, contrastive test): 67%; Insecticidal activity against peach aphid (%) ([3]; 2.5 mg/L, contrastive test): 80%; Insecticidal activity against peach aphid (%) ([3]; 5 mg/L, contrastive test): 100%; Insecticidal activity against peach aphid (%) ([3]; 10 mg/L, contrastive test): 100%; Insecticidal activity against peach aphid (%) ([3]; 100 mg/L, contrastive test): 100%; Insecticidal activity against peach aphid (%) ([3]; 600 mg/L, contrastive test): 100%; control (test results against green peach aphid) ([3]; 5 ppm, death rate after 48 hrs): 100%
